Literature values as cited in patent publication US20010026813A1, “Extract from scutellariae radix having neuroprotective effects and pharmaceutical preparations containing the same” (priority 2000, published 2001).
Read-outs that look alike come from different tables or passages of the source.

System: 4-VO models

## O=[N+]([O-])c1cccc2c(Br)n[nH]c12 [3-bromo-7-nitroindazole]
Dose not given
  defensive level: 20%

## O=[N+]([O-])c1cccc2cn[nH]c12 [Example 7-NI]
Dose not given
  defensive level: 17.5%

## CC1=NN=C(c2ccc(N)cc2)c2cc3c(cc2C1)OCO3 [GYK152466]
Dose not given
  defensive level: 11%

## COC(=O)[C@@H](N)CCCNC(=N)N[N+](=O)[O-] [L-NAME]
Dose not given
  defensive level: 23%

## CCNCc1cc(C(C)(C)C)c(O)c(C(C)(C)C)c1 [LY231617]
Dose not given
  defensive level: 25-30%

## CNC(=O)N1N=C(c2ccc(N)cc2)c2cc3c(cc2CC1C)OCO3 (stereo not drawn) [LY300168]
Dose not given
  defensive level: 23%

## C[C@]12N[C@H](Cc3ccccc31)c1ccccc12 [MK-801]
2 mg/kg, i.p.
  defensive level: 24%

## NS(=O)(=O)c1cccc2c1c([N+](=O)[O-])cc1nc(O)c(O)nc12 [NBQX]
30 mg/kg, i.p.
  defensive level: 42%

## OC(CN1CCC(Cc2ccc(F)cc2)CC1)c1ccc(Cl)cc1 (stereo not drawn) [eliprodil]
20 mg/kg, i.p.
  defensive level: 25%
